Laboratory results reported in article PMC6178619, “Arylvinylpiperazine Amides, a New Class of Potent Inhibitors Targeting QcrB of Mycobacterium tuberculosis” (mBio, 2018).
In brackets after ≈: the same amount, converted by molar mass. Read-outs that look alike come from different tables or passages of the source.

Experiments:
M. tuberculosis H37Rv [1] = test: MIC by resazurin reduction microplate assay (REMA); assay type: cell-based, Mycobacterium tuberculosis
[2] = tested on: M. tuberculosis H37Rv-infected THP-1 macrophages; test: microbe, parasite or virus in culture; assay type: cell-based; settings: Mycobacterium tuberculosis, THP-1, 48 h, read-out: Antimycobacterial activity against M. tuberculosis H37Rv, ex vivo in THP-1 macrophages (IC50)
HepG2 cells = assay type: cell-based, human
Procedure: Human HepG2 cells (4,000 cells/well) were incubated for 3 days with 2-fold serially diluted compounds at 37°C under an atmosphere of 5% CO2. Cell viability was determined by the addition of resazurin (0.0025% wt/vol) for 4 h at 37°C, and the fluorescence intensity was measured as in REMA.

Bacillus subtilis = test: MIC by REMA; assay type: cell-based
Candida albicans = test: MIC by REMA; assay type: cell-based
[3] = tested on: Corynebacterium diphtheriae; test: MIC by REMA; assay type: cell-based
[4] = tested on: Corynebacterium glutamicum; test: MIC by REMA; assay type: cell-based
Enterococcus faecalis = test: MIC by REMA; assay type: cell-based
Escherichia coli = test: MIC by REMA; assay type: cell-based
Listeria monocytogenes = test: MIC by REMA; assay type: cell-based
Micrococcus luteus = test: MIC by REMA; assay type: cell-based
Mycobacterium avium = test: MIC by REMA; assay type: cell-based
Mycobacterium bovis BCG = test: microbe, parasite or virus in culture; assay type: cell-based; settings: Mycobacterium tuberculosis variant bovis BCG
[5] = tested on: Mycobacterium canettii STB-L; test: MIC by REMA; assay type: cell-based; settings: Mycobacterium canetti
Mycobacterium marinum = test: MIC by REMA; assay type: cell-based
[6] = tested on: Mycobacterium massiliense; test: MIC by REMA; assay type: cell-based; settings: Mycobacteroides abscessus
Mycobacterium smegmatis = test: MIC by REMA; assay type: cell-based; settings: Mycolicibacterium smegmatis
Mycobacterium ulcerans = test: MIC by REMA; assay type: cell-based
Mycobacterium vaccae = test: MIC by REMA; assay type: cell-based; settings: Mycolicibacterium vaccae
Pseudomonas aeruginosa = test: MIC by REMA; assay type: cell-based
Pseudomonas putida = test: MIC by REMA; assay type: cell-based
[7] = tested on: Salmonella enterica serovar Typhimurium; test: MIC by REMA; assay type: cell-based
Staphylococcus aureus = test: MIC by REMA; assay type: cell-based
in vitro = test: in vitro
Procedure: Metabolic stability of the compounds was measured based on intrinsic clearance (Clint) in mouse and human liver microsomes as previously described ([42]). The final compound concentration in the mixture of microsomes and NADPH regeneration system was 2 µg/ml, and a mixture without NADPH regeneration was also prepared for each compound as a control of the stability of the compound with time.

wild-type H37Rv = assay type: cell-based, Mycobacterium tuberculosis; settings: 2.5× MIC, 24 h exposure
M. tuberculosis H37Rv [8] = assay type: cell-based; settings: AX-35 14 µM, Q203 0.3 µM (100× MIC50), glucose
[9] = tested on: M. tuberculosis H37Rv ΔcydAB; assay type: cell-based; settings: ΔcydAB strain; AX-35 14 µM, Q203 0.3 µM (100× MIC50)
M. tuberculosis H37Rv [10] = assay type: cell-based; settings: up to a concentration 32-fold higher than the MIC, 7 days
[11] = tested on: H37Rv ΔcydAB::cydAB complemented strain; assay type: cell-based
M. tuberculosis H37Rv [12] = test: Acute mouse model of TB; assay type: in vivo, mouse (BALB/c); settings: for Reduction of bacterial load in mouse lungs vs TPGS vehicle control: once daily for 10 days
M. bovis BCG = settings: cited from earlier work
M. tuberculosis H37Rv [13] = settings: cited from earlier work
[14] = H37RV; Mycobacterium tuberculosis (Table 2 panel); read-out: MIC
[15] = Mycobacterium tuberculosis, H37RV, 144 h; read-out: Antimycobacterial activity against M. tuberculosis H37Rv, in vitro (MIC)
[16] = Mycobacterium canettii STB-L, read-out: MIC

SMILES	MIC (M. tuberculosis H37Rv [1]; [15])	IC50 [2]	Cytotoxicity in HepG2 cells (TD50) (HepG2 cells; 3 days incubation)	MIC (Bacillus subtilis)	MIC (Candida albicans)	MIC [3]	MIC [4]	MIC (Enterococcus faecalis)	MIC (Escherichia coli)	MIC (Listeria monocytogenes)	MIC (Micrococcus luteus)	MIC (Mycobacterium avium)	MIC (Mycobacterium bovis BCG)	MIC (Mycobacterium marinum)	MIC [6]	MIC (Mycobacterium smegmatis)	MIC (Mycobacterium ulcerans)	MIC (Mycobacterium vaccae)	MIC (Pseudomonas aeruginosa)	MIC (Pseudomonas putida)	other results
O=C(/C=C/c1cccs1)N1CCN(Cc2ccc3c(c2)OCO3)CC1 [AX-35, (E)-1-(4-(Benzo[d][1,3]dioxol-5-ylmethyl)piperazin-1-yl)-3-(thiophen-2-yl)prop-2-en-1-one]	0.05 µg/mL (≈ 0.14 µM)	0.1 µg/mL (≈ 0.281 µM)	50 µg/mL	> 100 µg/mL	> 100 µg/mL	> 100 µg/mL	> 100 µg/mL	> 100 µg/mL	74 µg/mL (≈ 208 µM)	> 100 µg/mL	> 100 µg/mL	8.2 µg/mL (≈ 23 µM)	0.8 µg/mL (≈ 2.24 µM)	11.5 µg/mL (≈ 32.3 µM)	7.7 µg/mL (≈ 21.6 µM)	100 µg/mL (≈ 281 µM)	1.6 µg/mL (≈ 4.49 µM)	12.1 µg/mL (≈ 33.9 µM)	> 100 µg/mL	> 100 µg/mL	Antimycobacterial activity against M. tuberculosis H37Rv, in vitro (MIC) (M. tuberculosis H37Rv [1]): 0.05 µg/mL; MIC (M. tuberculosis H37Rv [1]; [14]): 0.05 µg/mL (≈ 0.14 µM); MIC [5, 16]: 0.003 µg/mL (≈ 0.00842 µM); MIC [7]: > 100 µg/mL; MIC (Staphylococcus aureus): > 100 µg/mL; Clearance Category (in vitro; human, microsomes): medium; microsomal CLint at 2 µg/ml (in vitro; human, microsomes): 21.7 µL/min/mg; Clearance Category (in vitro; mouse, microsomes): high; microsomal CLint at 2 µg/ml (in vitro; mouse, microsomes): 120 µL/min/mg; Intracellular ATP level, lower than untreated control (wild-type H37Rv): ~90%; Oxygen consumption rate (OCR) change from basal on compound addition (M. tuberculosis H37Rv [8]): increase; Increase in OCR on compound addition [9]: no longer observed; Mode of action (MBC, 99.9% killed) (M. tuberculosis H37Rv [10]): bacteriostatic; Outcome of AX-35 treatment in complemented strain [11]: survival of the bacteria; Reduction of bacterial load in mouse lungs vs TPGS vehicle control (M. tuberculosis H37Rv [12]; oral 200 mg/kg): 0.4 log10; MIC (M. bovis BCG): 0.3 µM (≈ 0.107 µg/mL); MIC (M. tuberculosis H37Rv [13]): 0.3 µM (≈ 0.107 µg/mL)
O=C(/C=C/c1ccsc1)N1CCN(Cc2ccc3c(c2)OCO3)CC1 [AX-36, (E)-1-(4-(Benzo[d][1,3]dioxol-5-ylmethyl)piperazin-1-yl)-3-(thiophen-3-yl)prop-2-en-1-one]	0.1 µg/mL (≈ 0.281 µM)	0.3 µg/mL (≈ 0.842 µM)	37.5 µg/mL	> 100 µg/mL	> 100 µg/mL	> 100 µg/mL	> 100 µg/mL	> 100 µg/mL	100 µg/mL (≈ 281 µM)	> 100 µg/mL	> 100 µg/mL	12.8 µg/mL (≈ 35.9 µM)	0.8 µg/mL (≈ 2.24 µM)	19.6 µg/mL (≈ 55 µM)	10.4 µg/mL (≈ 29.2 µM)	63 µg/mL (≈ 177 µM)	1.6 µg/mL (≈ 4.49 µM)	26.9 µg/mL (≈ 75.5 µM)	> 100 µg/mL	> 100 µg/mL	MIC (M. tuberculosis H37Rv [1]; [14]): 0.1 µg/mL (≈ 0.281 µM); MIC [5, 16]: 0.01 µg/mL (≈ 0.0281 µM); MIC [7]: > 100 µg/mL; MIC (Staphylococcus aureus): > 100 µg/mL; Clearance Category (in vitro; human, microsomes): medium; microsomal CLint at 2 µg/ml (in vitro; human, microsomes): 16.8 µL/min/mg; Clearance Category (in vitro; mouse, microsomes): high; microsomal CLint at 2 µg/ml (in vitro; mouse, microsomes): 117 µL/min/mg; Intracellular ATP level, lower than untreated control (wild-type H37Rv): ~90%
O=C(/C=C/c1cscn1)N1CCN(Cc2ccc3c(c2)OCO3)CC1 [AX-37, (E)-1-(4-(Benzo[d][1,3]dioxol-5-ylmethyl)piperazin-1-yl)-3-(1λ^3,3λ^2-thiazol-4-yl)prop-2-en-1-one]	0.1 µg/mL (≈ 0.28 µM)	0.2 µg/mL (≈ 0.56 µM)	25 µg/mL																		Reduction of bacterial load in mouse lungs vs TPGS vehicle control (M. tuberculosis H37Rv [12]; oral 100 mg/kg): 0.6 log10
O=C(/C=C/c1ccccc1)N1CCN(Cc2ccc3c(c2)OCO3)CC1 [AX-38, (E)-1-(4-(Benzo[d][1,3]dioxol-5-ylmethyl)piperazin-1-yl)-3-phenylprop-2-en-1-one]	0.2 µg/mL (≈ 0.571 µM)	0.3 µg/mL (≈ 0.856 µM)	37.5 µg/mL																		Clearance Category (in vitro; human, microsomes): medium; microsomal CLint at 2 µg/ml (in vitro; human, microsomes): 13.3 µL/min/mg; Clearance Category (in vitro; mouse, microsomes): high; microsomal CLint at 2 µg/ml (in vitro; mouse, microsomes): 63.8 µL/min/mg
O=C(/C=C/c1nccs1)N1CCN(Cc2ccc3c(c2)OCO3)CC1 [AX-39, (E)-1-(4-(Benzo[d][1,3]dioxol-5-ylmethyl)piperazin-1-yl)-3-(thiazol-2-yl)prop-2-en-1-one]	0.3 µg/mL (≈ 0.839 µM)	1.8 µg/mL (≈ 5.04 µM)	75 µg/mL																		Reduction of bacterial load in mouse lungs vs TPGS vehicle control (M. tuberculosis H37Rv [12]; oral 100 mg/kg): 0.9 log10
NC(=O)N1c2ccccc2C=Cc2ccccc21 [Carbamazepine, reference compound]																					Clearance Category (in vitro; human microsomes, compound 2 µg/ml): low; Clearance Category (in vitro; mouse microsomes, compound 2 µg/ml): low
CCc1nc2ccc(Cl)cn2c1C(=O)NCc1ccc(N2CCC(c3ccc(OC(F)(F)F)cc3)CC2)cc1 [Compound Q203, reference compound]																					Oxygen consumption rate (OCR) change from basal on compound addition (M. tuberculosis H37Rv [8]): increase; Increase in OCR on compound addition [9]: no longer observed
NNC(=O)c1ccncc1 [INH, isoniazid, reference compound]																					log10 CFU per lung (M. tuberculosis H37Rv [12]; 25 mg/kg oral, Day 10): below l.o.d.
CO[C@H]1/C=C/O[C@@]2(C)Oc3c(C)c(O)c4c(O)c(c(/C=N/N5CCN(C)CC5)c(O)c4c3C2=O)NC(=O)/C(C)=C\C=C\[C@H](C)[C@H](O)[C@@H](C)[C@@H](O)[C@@H](C)[C@H](OC(C)=O)[C@@H]1C [Rifampin, rifampin, reference compound]		0.1 µg/mL (≈ 0.122 µM)		0.3 µg/mL (≈ 0.365 µM)	1.5 µg/mL (≈ 1.82 µM)	0.0004 µg/mL (≈ 0.000486 µM)	0.004 µg/mL (≈ 0.00486 µM)	0.6 µg/mL (≈ 0.729 µM)	6.7 µg/mL (≈ 8.14 µM)	0.8 µg/mL (≈ 0.972 µM)	0.7 µg/mL (≈ 0.851 µM)	25 µg/mL (≈ 30.4 µM)	0.0008 µg/mL (≈ 0.000972 µM)	0.5 µg/mL (≈ 0.608 µM)	26.9 µg/mL (≈ 32.7 µM)	1.7 µg/mL (≈ 2.07 µM)	0.01 µg/mL (≈ 0.0122 µM)	2.5 µg/mL (≈ 3.04 µM)	1 µg/mL (≈ 1.22 µM)	0.2 µg/mL (≈ 0.243 µM)	MIC (M. tuberculosis H37Rv [1]; Mycobacterium tuberculosis, H37RV): 0.001 µg/mL (≈ 0.00122 µM); MIC (M. tuberculosis H37Rv [1]; Mycobacterium tuberculosis, H37RV, 144 h, read-out: Antimycobacterial activity against M. tuberculosis H37Rv, in vitro (MIC)): 0.0008 µg/mL (≈ 0.000972 µM); Cytotoxicity in HepG2 cells (TD50) (HepG2 cells; human): 75 µg/mL; MIC [5]: 0.002 µg/mL (≈ 0.00243 µM); MIC [7]: 0.7 µg/mL (≈ 0.851 µM); MIC (Staphylococcus aureus): 3.8 µg/mL (≈ 4.62 µM)
